The values that follow come from article PMC4865845, “A human genome-wide loss-of-function screen identifies effective chikungunya antiviral drugs” (Nature Communications, 2016).

The subject of one data set is HEK-293 cells. Kind of data set: Cell viability, Cell Proliferation Reagent WST-1. Type of data set: cell-based, human. Particulars: Homo sapiens, HEK293, 18 h, read-out: WST-1 IC50. Here is the method:
To exclude the possible cytotoxic effects, all compounds were additionally tested using the ‘Cell Proliferation Reagent WST-1' (Roche Diagnostics). HEK-293 cells were treated with the same concentrations of the various substances and 18 h later WST-1 was added. Readout was conducted using the EnVision Multilabel Reader (PerkinElmer).
As for `CCOC(=O)C1=C(C)NC(C)=C(C(=O)OC)C1c1cccc(Cl)c1Cl` (centres unmarked) [Felodipine], the IC50 turned out to be 12100 nM.

`Cc1ccc(Nc2nccc(N(C)c3ccc4c(C)n(C)nc4c3)n2)cc1S(N)(=O)=O` [Pazopanib]: the IC50 was 1320 nM.

Take `CNC(=O)c1cc(Oc2ccc(NC(=O)Nc3ccc(Cl)c(C(F)(F)F)c3)cc2)ccn1` [Sorafenib]: the IC50 was 18200 nM.

Turning to `COc1cc(N2CCC(N3CCN(C)CC3)CC2)ccc1Nc1ncc(Cl)c(Nc2ccccc2S(=O)(=O)C(C)C)n1` [TAE684], the IC50 is 2070 nM.

As to `CC(Cc1ccccc1)NCCC(c1ccccc1)c1ccccc1` (centres unmarked) [Prenylamine], the IC50 came to 16500 nM.

Another data set concerns CHIKV. Kind of data set: microbe, parasite or virus in culture. Particulars: Chikungunya virus, HEK293; HEK-293 cells pretreated with dilutions of each drug, CHIKV-GFP, 18 h p.i. The format is cell-based, chikungunya virus.
Take `CCOC(=O)C1=C(C)NC(C)=C(C(=O)OC)C1c1cccc(Cl)c1Cl` (centres unmarked) [Felodipine]: the IC50 worked out at 3240 nM.

Consider `Cc1ccc(Nc2nccc(N(C)c3ccc4c(C)n(C)nc4c3)n2)cc1S(N)(=O)=O` [Pazopanib], for which the IC50 came to 130 nM.

Take `CNC(=O)c1cc(Oc2ccc(NC(=O)Nc3ccc(Cl)c(C(F)(F)F)c3)cc2)ccn1` [Sorafenib]: the IC50 was 1110 nM.

As to `COc1cc(N2CCC(N3CCN(C)CC3)CC2)ccc1Nc1ncc(Cl)c(Nc2ccccc2S(=O)(=O)C(C)C)n1` [TAE684], the IC50 is 150 nM.

As to `CC(Cc1ccccc1)NCCC(c1ccccc1)c1ccccc1` (centres unmarked) [Prenylamine], the IC50 was found to be 2390 nM.

A further data set relates to CHIKV.
Assay: not given
The format is cell-based, chikungunya virus.
Settings: not given
For the compound “s12099 (sense GCTTGTAGGTGATACACCT; chemistry not given here)”, the Score_si2 was 1.09.

With “Hs_FLJ00193_2 (GAGCAGCTACATGGAGATGAA; chemistry not given here)”, the Score_si1 worked out at 2.41.

In turn, “s51651 (sense TGAGCAGTGAGAACCCATA; chemistry not given here)” yielded a Score_si2 of 1.55.

“s24800 (sense CTATGGATGTTGATGTAGA; chemistry not given here)” had a Score_si2 of 1.78.

As to “s9325 (CTTCAGTGCTGATCAGGTA; chemistry not given here)”, the Score_si4 is 0.41.

“s11515 (sense GGATAACACTGTACAAGCT; chemistry not given here)” yielded a Score_si1 of 1.79.

Compound “s27208 (sense GACACTTGTTTCTTACCTA; chemistry not given here) [reference compound]” showed a Score_si4 of 0.22.

In turn, “Hs_PP3856_2 (CTGGCTGGAGTCAGTCCTCAT; chemistry not given here)” displayed a Score_si1 of 2.53.

“Hs_SULF1_1 (sense TCCGTCGAATTTGAAGGTGAA; chemistry not given here) [reference compound]” registered a Score_si1 of -2.1.

Compound “s15684 (sense GGAGCTGATCATCAACAAA; chemistry not given here)” showed a Score_si4 of 1.33.

In turn, “s11517 (sense GCGAAGTGTTTGTAAATCA; chemistry not given here)” gave a Score_si4 of 1.19.

As to “Hs_TRAF2_5 (CACGAGGGCATATATGAAGAA; chemistry not given here) [reference compound]”, the Score_si4 was -0.76.

“Hs_PRSS15_2 (sense CAGCCTTATGTCGGCGTCTTT; chemistry not given here)”: the Score_si2 is 1.66.

In the case of “Hs_TRAF2_2 (CAGAGTTATTAAACCATTCAA; chemistry not given here) [reference compound]”, the Score_si2 is -0.92.

In the case of “Hs_LRP6_7 (CTGGATGGTTCTGACCGTGTA; chemistry not given here)”, the Score_si1 is given as 1.93.

In the case of “Hs_RORC_2 (sense TAGGATGTGCCGGGCCTACAA; chemistry not given here)”, the Score_si1 stood at 1.28.

Take “Hs_GBF1_1 (sense AAGAATATTTACATCATTCAA; chemistry not given here)”: the Score_si4 is on record as 1.75.

Compound “s5032 (sense GGAGCGTATCTGTGAGAAA; chemistry not given here)” came in with a Score_si4 of 1.56.

Compound “s8261 (sense GGGTGGAGGTGTACTATGA; chemistry not given here)” displayed a Score_si3 of 0.99.

“s21626 (sense GGCAGTTGATTGTGGATGA; chemistry not given here)”: the Score_si4 came to 0.37.

With “Hs_TUSC1_1 (TCCCTGTACATCTAATATATA; chemistry not given here) [reference compound]”, the Score_si1 is on record as -1.75.

“Hs_RRBP1_3 (sense CTGGCTGCAGGTGAAAGGAAA; chemistry not given here)” showed a Score_si4 of 1.53.

For orientation: IC50 means the concentration that gives 50% inhibition.
